Reference: US5314998A, “Organic solvent-soluble metal-azo and metal-azomethine dyes” (Minnesota Mining and Manufacturing Company, priority 1992, dated 1994)

What was measured:
[1] = Thermogravimetric analysis, loss of pyridine ligand; type: physicochemical
[2] = reported to decompose, apparently without melting; cited from earlier work
[3] = Differential Scanning Calorimeter scan, melting behaviour; details: Differential Scanning Calorimeter scan of analytically pure compound
Procedure: Melting points of the metal complexes were determined using a Thomas-Hoover melting point apparatus or by differential scanning calorimetry at a heating rate of 5° C. per minute.

[4] = Solubility in heptane (absorbance at maximum of saturated solution), chromium metal-azo complexes; type: physicochemical; details: room temperature (22° C.)
Procedure: The samples were prepared by shaking the dye in heptane for several hours, allowing the samples to sit overnight, and filtering through a plug of glass wool to remove particulates.

[5] = Solubility in heptane (absorbance at maximum), four-coordinate platinum metal-azo complexes; type: physicochemical; details: ambient temperature
Excerpt: ^b result obtained by measuring in a 1 cm cell and dividing result by
^c estimate based on fitting the spectrum in the 510-550 nm region.

Compound	Temperature of 50% Loss of Pyridine Ligand [1] [°C]	DSC melting behaviour [3]	Absorbance at Maximum in Heptane/1 mm Cell [4]	further results
[Cu+2].[O-]c1ccccc1N=Nc1ccccc1[O-].c1ccncc1 [Compound 8, [[2,2-azobis[phenolato]](-2)-N,O,O](pyridine)copper]	133	–	–	decomposition temperature [2]: 310 °C
CCCCC(CCCC)c1ccncc1.[Cu+2].[O-]c1ccccc1N=Nc1ccccc1[O-] [Compound 9, [[2,2-azobis[phenolato]](-2)-N,O,O](4-(5-nonylpyridine))copper]	148	has a classic melting transition associated with organic-like compounds	–	–
CCCCC(CCCC)c1ccncc1.CCCCN(CCCC)S(=O)(=O)c1ccc([O-])c(N=Nc2c([O-])ccc3ccccc23)c1.[Cu+2] [Compound 11, [1-[5-N,N-dibutylsulfonamido-2-hydroxyphenyl]azo-2-naphthalenolato(-2)](4-(5-nonylpyridine))copper]	223	has a classic melting transition associated with organic-like compounds	–	–
CC(=O)[CH-]C(C)=O.[Cr+3].[O-]c1ccccc1N=Nc1ccccc1[O-].c1ccncc1 [Compound 28, [[2,2-azobis[phenolato]](-2)-N,O,O](pyridine)(2,4-pentanedionato-O,O)chromium]	–	–	0.022	–
CC(=O)C=C(C)[O-].CCc1ccncc1.[Cr+3].[O-]c1ccccc1N=Nc1ccccc1[O-] [Compound 31, [[2,2-azobis[phenolato]](-2)-N,O,O](2,4-pentanedionato-O,O)(4-ethylpyridine)chromium]	–	–	0.644	–
CC(=O)C=C(C)[O-].CCOC(=O)c1cccnc1.[Cr+3].[O-]c1ccccc1N=Nc1ccccc1[O-] [Compound 32, [[2,2-azobis[phenolato]](-2)-N,O,O](2,4-pentanedionato-O,O)(ethyl nicotinate)chromium]	–	–	0.362	–
[O-]c1ccccc1N=Nc1ccccc1[O-].[Pt+2].c1ccncc1 [Pt(DHAB)Py, [[2,2azobis[phenolato]](2)-N,O,O](pyridine)platinum, reference compound]	–	–	–	Absorbance at Maximum in Heptane/1 mm Cell [5]: 0.41
[1-[5-N,N-dibutylsulfonamido-2-hydroxyphenyl]azo-2-naphthalenolato(-2)](pyridine)copper [Compound 10]	180	does not exhibit a clean melt	–	–
[[2,2-azobis[phenolato]](-2)-N,O,O](2,4-pentanedionato-O,O)(ethyl isonicotinate)chromium [Compound 33]	–	–	0.634	–
[[2,2-azobis[phenolato]](-2)-N,O,O](4-n-octylpyridine)platinum [Compound 17]	–	–	–	Absorbance at Maximum in Heptane/1 mm Cell [5]: 2.49
